Assays:
HIV-1 LAI = test: MAGI assay, HIV-1 LAI; assay type: cell-based; details: Human immunodeficiency virus 1, MAGI cells
Procedure: (§1) Briefly, target cells (HeLa CD4/CCR5-LTR/β-gal; 10^4/well) were plated in 96-well flat microtiter culture plates. […] The test drugs were added initially and viruses were immediately inoculated onto the cells. Forty-eight hours after viral exposure, all blue cells in each well were counted. The cytotoxicity of the compound was determined by the MTT method as previously described. All experiments were performed in triplicate and AZT was used as reference anti-HIV-1 molecule.

Water solubility = assay type: physicochemical
[1] = Cytotoxicity by MTT method (MAGI cells); assay type: cell-based; details: human, HeLa CD4/CCR5-LTR/β-gal cells (MAGI cells); MTT, mean of triplicate ± SD
Procedure: as §1

[2] = test system: HeLa CD4/CCR5-LTR/β-gal cells; test: Cytotoxicity by MTT method (MAGI cells); assay type: cell-based; details: concentrations up to 100 μg/ml (115.7 μM)
Procedure: as §1

[3] = test system: Tim-3 expression on CD4+ and CD8+ T cells; test: Flow cytometry of Tim-3 on T cells of HIV-1-infected PBMCs; assay type: cell-based, human; details: day 9 post infection
Description: (§2) PBMCs (1 x 10^6/ml) were infected with 100 TCID50 of various HIV-1 strains (92UG037: primary R5-tropic strain; YU2B and BaL: R5-tropic lab strains, 93BR020: dual-tropic primary isolate; NL4-3: X4-tropic lab strain) and simultaneously treated with a range of concentrations of IND02-trimer in 24-well plates (Greiner) in duplicates. Cells were washed, fixed (4% paraformaldehyde) and stained on several days post infection (1-4-9-13-19) using the following mAbs against PD-1-Brilliant Violet 421, CD3-FITC, Tim-3-PE, CD4-PE-Cy7 (all from Biolegend) and CD8-APC (Miltenyi). Multicolor flow cytometric analyses were performed on a FACS Verse (BD Biosciences).
(§3) Fig 5 Reduction of Tim-3 (left) and PD1 (right) expression on HIV-1 and IND02-trimer-treated CD8^+ (A) and CD4^+ (B) T cells. Stimulated PBMCs were simultaneously incubated with 0.4 to 40 μg/ml (0.46–46.3 μM) IND02-trimer and HIV-1 (92UG037, BaL, YU2b, 93BR020 or NL4-3). Up-regulation of Tim-3 (left) and PD-1 (right) on CD8^+ (A) and CD4^+ (B) T cells was impeded by the IND02-trimer, as shown by multicolour FACS analyses of live T cells on day 9 post co-treatment. Experiments were repeated in 4–5 independent experiments with cells from different donors and statistical differences were analyzed by the GraphPad prism software using the unpaired student’s t-test (2-tailed).

HIV-1 Ba-L (B-R5) = test: PBMC antiviral assay (RT activity), HIV-1 Ba-L; assay type: cell-based; details: Human immunodeficiency virus 1, BAL, PBMC, 168 h; PHA-P-activated PBMCs, 125 TCID50, day 7, RT activity
Procedure: (§4) In order to confirm antiretroviral activity of the compounds, using a cell model closer to the pathophysiology, Peripheral Blood Mononuclear Cells (PBMCs) were separated from a buffy-coat from healthy HIV-, HCV-, HBV-seronegative blood donors by Ficoll-Hypaque density gradient centrifugation. The PBMCs were activated by incubation with 1 μg/ml phytohemagglutinin-P (PHA-P; Difco Laboratories) for three days in RPMI 1640 medium supplemented with 10% heat-inactivated fetal calf serum (FCS, +56 ◦C for 45 min), 2mM l-glutamine and a 1% antibiotic cocktail (penicillin, streptomycin, neomycin). After this mitogen activation, PBMCs were cultivated in the same culture medium supplemented with recombinant human interleukin-2 (rHuIL-2; 20 IU/mL) and treated and/or infected. […] All these viruses were amplified in vitro with PHA-P-activated blood mononuclear cells and 50% tissue culture infectious doses (TCID50) were calculated using Kärber’s formula [37], after limited-dilution titration. […] Viral replication was measured by quantifying reverse transcriptase (RT) activity in the cell culture supernatants using the Lenti RT Activity Kit (Cavidi) and AZT was used as reference anti-HIV-1 molecule. EC50 were then calculated and expressed in μM.

HIV-1 NL4-3 = test: MAGI assay, HIV-1 NL4-3; assay type: cell-based; details: Human immunodeficiency virus 1, NL43, MAGI cells
Procedure: as §1

[4] = test system: PD-1 expression on CD4+ and CD8+ T cells; test: Flow cytometry of PD-1 on T cells without HIV-1 (IND02-trimer alone); assay type: cell-based, human; details: no HIV-1, day 9 post exposure
[5] = test system: HIV-1 reference strains and clinical isolates; test: PBMC antiviral assay, whole panel of strains; assay type: cell-based
Procedure: The PBMCs were activated by incubation with 1 μg/ml phytohemagglutinin-P (PHA-P; Difco Laboratories) for three days in RPMI 1640 medium supplemented with 10% heat-inactivated fetal calf serum (FCS, +56 ◦C for 45 min), 2mM l-glutamine and a 1% antibiotic cocktail (penicillin, streptomycin, neomycin). After this mitogen activation, PBMCs were cultivated in the same culture medium supplemented with recombinant human interleukin-2 (rHuIL-2; 20 IU/mL) and treated and/or infected. PBMCs were infected either with the reference lymphotropic (-X4) HIV-1 LAI strain [35], the reference macrophage-tropic (-R5) HIV-1 BaL strain [36] or with 4 different clinical isolates (subtype A, B or C). All these viruses were amplified in vitro with PHA-P-activated blood mononuclear cells and 50% tissue culture infectious doses (TCID50) were calculated using Kärber’s formula [37], after limited-dilution titration. […] Cell supernatants were collected at day 7 post-infection and stored at -20°C. Viral replication was measured by quantifying reverse transcriptase (RT) activity in the cell culture supernatants using the Lenti RT Activity Kit (Cavidi) and AZT was used as reference anti-HIV-1 molecule. EC50 were then calculated and expressed in μM. […]

[6] = target: T1, MN gp120 binding to heparan sulfate (HS) (Human immunodeficiency virus type 1 group M subtype B, UniProt P05877); test: biochemical; design: species or system HIV-1
T1 construct: MN gp120 (50 μg/ml in 5 mM maleate buffer, pH 6); purchased Immunodiagnostics (Massachusetts, USA)
Procedure: (§5) For that purpose, CM4 sensorchips were activated with 50 μL of 0.2 M N-ethyl-N’-([…])-carbodiimide (EDC) and 0.05 M N-hydroxy-succimide (NHS) at 5 μL/min. Then soluble CD4 (10 μg/mL in 10 mM acetate buffer, pH 5), streptavidin (200 μg/mL in 10 mM acetate buffer, pH 4.2), mAb 17b (5 μg/mL in 10 mM acetate buffer, pH 5), MN gp120 (50 μg/ml in 5 mM maleate buffer, pH 6) or YU2 gp120 (50μg/mL in 10 mM acetate buffer, pH 4.8) were injected at 5 μL/min over one of the EDC/NHS activated flow cell until levels of 1200 (for sCD4), 700 (for mAb 17b), 3000 (for streptavidin), or 4500 (for gp120s) response units (RU) were achieved. HS (1 mM in phosphate-buffered saline) was biotinylated through its reducing end by reductive amination with 10 mM of biotin-LC-Hydrazine (Pierce) and captured on the streptavidin surface (20 μg/mL in 10 mM Hepes buffer pH 7.4 and 0.3 M NaCl) to a level of 60–80 RU as described. Surfaces were then blocked with 1M ethanolamine (pH 8.5) for 5 minutes.
(§6) CD4, mAb 17b and gp120 surfaces were regenerated by 1 min injection of 10 mM HCl and the HS surface was regenerated with a 1 min injection of 0.05% SDS followed by a 3 min injection of 2 M NaCl.

[7] = target: T2, YU2 gp120/CD4 complex binding to mAb 17b (co-receptor binding site) (Human immunodeficiency virus type 1 group M subtype B, UniProt P35961); design: species or system HIV-1; details: Fig 4F
T2 construct: purchased Immunodiagnostics (Massachusetts, USA)
Procedure: as §5, with “minutes. […]” for “minutes.”
(§7) The specific binding responses in resonance unit (RU) for MN- (A) and YU2- (B) gp120 were recorded as a function of time (s). […] The specific binding responses in resonance unit (RU) for MN- (C, E) and YU2- (D, F) gp120 were recorded as a function of time (s), and after each injection, the surface was regenerated by a short pulse of 10 mM HCl. […]

[8] = target: T3, MN gp120/CD4 complex binding to mAb 17b (co-receptor binding site) (Human immunodeficiency virus type 1 group M subtype B, UniProt P05877); design: species or system HIV-1; details: Fig 4E
T3 construct: purchased Immunodiagnostics (Massachusetts, USA)
Procedure: as §5, with “minutes. […]” for “minutes.”
as §7

HIV-1 92UG029 (A-X4) = test: PBMC antiviral assay (RT activity), HIV-1 92UG029; assay type: cell-based; details: Human immunodeficiency virus 1, PBMC, 168 h; PHA-P-activated PBMCs, 125 TCID50, day 7, RT activity
Procedure: as §4

[9] = test system: PD-1 expression on CD4+ and CD8+ T cells; test: Flow cytometry of PD-1 on T cells of HIV-1-infected PBMCs; assay type: cell-based, human; details: day 9 post infection
Description: as §2, §3

[10] = target: T4, YU2 gp120-CD4 interaction (Human immunodeficiency virus type 1 group M subtype B, UniProt P35961); assay type: binding, HIV-1; details: SPR, immobilized CD4, data not shown
T4 construct: HIV-1 gp120 was injected over the immobilized CD4; purchased Immunodiagnostics (Massachusetts, USA)
Procedure: as §5, with “minutes. […]” for “minutes.”
(§8) The specific binding responses in resonance unit (RU) for MN- (A) and YU2- (B) gp120 were recorded as a function of time (s). […] The specific binding responses in resonance unit (RU) for MN- (C, E) and YU2- (D, F) gp120 were recorded as a function of time (s), and after each injection, the surface was regenerated by a short pulse of 10 mM HCl.

MN gp120-CD4 interaction = target: T5, MN gp120-CD4 interaction (Human immunodeficiency virus type 1 group M subtype B, UniProt P05877); assay type: binding, HIV-1; details: SPR, immobilized CD4, data not shown
T5 construct: HIV-1 gp120 was injected over the immobilized CD4; purchased Immunodiagnostics (Massachusetts, USA)
Procedure: as §5, with “minutes. […]” for “minutes.”
as §8

HIV-1 92HT599 (B-X4) = test: PBMC antiviral assay (RT activity), HIV-1 92HT599; assay type: cell-based; details: Human immunodeficiency virus 1, PBMC, 168 h; PHA-P-activated PBMCs, 125 TCID50, day 7, RT activity
Procedure: as §4

HIV-1 LAI (B-X4) = test: PBMC antiviral assay (RT activity), HIV-1 LAI; assay type: cell-based; details: Human immunodeficiency virus 1, PBMC, 168 h; PHA-P-activated PBMCs, 125 TCID50, day 7, RT activity
Procedure: as §4

Cytotoxicity in PBMCs = assay type: cell-based, human; details: human, PHA-P-activated peripheral blood mononuclear cells (PBMCs)
[11] = Stability studies in formulations; assay type: physicochemical; details: in various formulations
YU2 gp120 (R5-tropic) = target: T6, YU2 gp120 (R5-tropic) (Human immunodeficiency virus type 1 group M subtype B, UniProt P35961); assay type: binding, HIV-1; details: SPR, 0 to 25 μM injected
T6 construct: YU2 gp120 (50μg/mL in 10 mM acetate buffer, pH 4.8); purchased Immunodiagnostics (Massachusetts, USA)
Procedure: as §5, §6
(§9) In order to evaluate the potential anti-viral properties of cinnamon, we first underwent a series of biochemical binding experiments using surface plasmon resonance. […]

MN gp120 (X4-tropic) = target: T7, MN gp120 (X4-tropic) (Human immunodeficiency virus type 1 group M subtype B, UniProt P05877); assay type: binding, HIV-1; details: SPR, 0 to 25 μM injected
T7 construct: MN gp120 (50 μg/ml in 5 mM maleate buffer, pH 6); purchased Immunodiagnostics (Massachusetts, USA)
Procedure: as §5, §6, §9

HIV-1 98IN017 (C-X4) = test: PBMC antiviral assay (RT activity), HIV-1 98IN017; assay type: cell-based; details: Human immunodeficiency virus 1, PBMC, 168 h; PHA-P-activated PBMCs, 125 TCID50, day 7, RT activity
Procedure: as §4

Oc1cc(O)c2c(c1)O[C@@]1(c3ccc(O)c(O)c3)Oc3cc(O)c4c(c3[C@@H]2[C@H]1O)O[C@H](c1ccc(O)c(O)c1)[C@H](O)[C@H]4c1c(O)cc(O)c2c1O[C@H](c1ccc(O)c(O)c1)[C@H](O)C2 [IND02-trimer, cinnamtannin B1]
EC50 (HIV-1 LAI): 3.4 µg/mL
EC50 (HIV-1 LAI; 48 h, mean of triplicate ± SD): 3.9 ± 1.6 µM
water solubility (Water solubility): water-soluble
CC50 [1]: 96 ± 4 µM
cytotoxicity [2]: did not show cytotoxicity
Tim-3 expression on CD8+ T cells versus infected control cells ([3]; HIV-1-infected PBMC cultures, 0.4 to 40 μg/ml (0.46–46.3 μM)): significantly lower expression
Tim-3 expression on CD4+ T cells versus infected control cells ([3]; HIV-1-infected PBMCs): decreased
EC50 (HIV-1 Ba-L (B-R5)): 6.9 ± 2 µM
EC50 (HIV-1 NL4-3): 2.8 µg/mL
EC50 (HIV-1 NL4-3; 48 h, mean of triplicate ± SD): 3.2 ± 1.4 µM
% CD4+/PD-1+ ([4]; 0.4 μg/ml / 0.46 μM): 33.8%
% CD8+/PD-1 ([4]; 0.4 μg/ml / 0.46 μM): 23.7%
% CD4+/PD-1+ ([4]; 2 μg/ml / 2.31 μM): 35.0%
% CD8+/PD-1 ([4]; 2 μg/ml / 2.31 μM): 23.5%
% CD4+/PD-1+ ([4]; 4 μg/ml / 4.6 μM): 32.1%
% CD8+/PD-1 ([4]; 4 μg/ml / 4.6 μM): 23.7%
% CD4+/PD-1+ ([4]; 20 μg/ml / 23.1 μM): 32.0%
% CD8+/PD-1 ([4]; 20 μg/ml / 23.1 μM): 23.9%
% CD4+/PD-1+ ([4]; 40 μg/ml / 46 μM): 32.7%
% CD8+/PD-1 ([4]; 40 μg/ml / 46 μM): 23.5%
EC50 ([5]; Human immunodeficiency virus 1, PBMC, read-out: EC50 over the panel of strains): 0.8 to 7 µM
ED50 against a range of clinical isolates from different clades ([5]; PBMCs): 1 to 7 µM
IC50 [6]: 7.5 ± 3.5 µM
concentration from which inhibition of YU2 gp120/CD4 binding to mAb 17b was observed [7]: ≥ 50 µM
concentration from which inhibition of MN gp120/CD4 binding to mAb 17b was observed [8]: ≥ 50 µM
EC50 (HIV-1 92UG029 (A-X4)): 2.3 µM
PD-1 expression on CD8+ T cells versus infected control cells ([9]; HIV-1-exposed PBMCs, all concentrations tested (0.4 to 40 μg/ml)): significantly reduced
PD-1 expression on CD4+ T cells versus infected control cells ([9]; HIV-1-infected PBMCs): decreased
inhibition of YU2 envelope binding to CD4 [10]: did not show a significant inhibition
inhibition of MN envelope binding to CD4 (MN gp120-CD4 interaction): did not show a significant inhibition
EC50 (HIV-1 92HT599 (B-X4)): 1.2 ± 1 µM
EC50 (HIV-1 LAI (B-X4)): 4.6 ± 3 µM
CC50 (Cytotoxicity in PBMCs): 23 ± 2 µM
time over which the compound is stable [11]: ≥ 6 months
binding to immobilized YU2 gp120 (YU2 gp120 (R5-tropic)): gave binding signals
binding to immobilized MN gp120 (MN gp120 (X4-tropic)): gave binding signals
EC50 (HIV-1 98IN017 (C-X4)): 0.8 µM

Reference: publication PMC5082894 (PLoS ONE, 2016)
